From the supplement of paper PMC10883282

Tests used:
Assay in all cases: relative viability vs DMSO control (72 h) (fraction); higher = more viable cells
A204 = tested on: A204
Method in brief: (§1)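 After seeding at densities set for 80–90% confluence in 384-well plates, sarcoma cell lines waited 24 h before 2.5 µl of serially diluted compound was added. Source plates held 10 mM down to 0.0002 mM. Plates were incubated 72 h at 37 °C with 5% CO2, with 0.1% DMSO vehicle and a 5 µM positive control, and relative viability was taken from ATPLite as percent growth averaged over up to triplicate wells, with 1 set as full and 0 as none.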

G401 = tested on: G401
Method in brief: as §1

HS729 = tested on: HS729
Method in brief: as §1

KHOS-NP = tested on: KHOS-NP
Method in brief: as §1

MES-SA = tested on: MES-SA
Method in brief: as §1

RD = tested on: RD
Method in brief: as §1

SK-ES-1 = tested on: SK-ES-1
Method in brief: as §1

SK-LMS-1 = tested on: SK-LMS-1
Method in brief: as §1

SW684 = tested on: SW684
Method in brief: as §1

SW872 = tested on: SW872
Method in brief: as §1

SYO-1 = tested on: SYO-1
Method in brief: as §1

VA-ES-BJ = tested on: VA-ES-BJ
Method in brief: as §1

N#CCNC(=O)c1ccc(-c2ccnc(Nc3ccc(N4CCOCC4)cc3)n2)cc1 [Momelotinib]
Conditions | relative viability
A204, 0.00017 µM | 1.03
A204, 0.00051 µM | 1.07
A204, 0.00152 µM | 1.05
A204, 0.00457 µM | 1.05
A204, 0.01372 µM | 1.04
A204, 0.04115 µM | 1.06
A204, 0.1235 µM | 0.993
A204, 0.3704 µM | 0.774
A204, 1.111 µM | 0.646
A204, 3.333 µM | 0.498
A204, 10 µM | 0.284
G401, 0.00017 µM | 1.01
G401, 0.00051 µM | 1.011
G401, 0.00152 µM | 1.05
G401, 0.00457 µM | 1.06
G401, 0.01372 µM | 1.01
G401, 0.04115 µM | 0.964
G401, 0.1235 µM | 0.975
G401, 0.3704 µM | 0.898
G401, 1.111 µM | 0.779
G401, 3.333 µM | 0.683
G401, 10 µM | 0.54
HS729, 0.00017 µM | 1.07
HS729, 0.00051 µM | 1.04
HS729, 0.00152 µM | 1.05
HS729, 0.00457 µM | 1.06
HS729, 0.01372 µM | 1.01
HS729, 0.04115 µM | 1.01
HS729, 0.1235 µM | 0.995
HS729, 0.3704 µM | 0.939
HS729, 1.111 µM | 0.859
HS729, 3.333 µM | 0.777
HS729, 10 µM | 0.741
KHOS-NP, 0.00017 µM | 1.09
KHOS-NP, 0.00051 µM | 1.099
KHOS-NP, 0.00152 µM | 1.101
KHOS-NP, 0.00457 µM | 1.09
KHOS-NP, 0.01372 µM | 1.115
KHOS-NP, 0.04115 µM | 1.11
KHOS-NP, 0.1235 µM | 1.101
KHOS-NP, 0.3704 µM | 1.08
KHOS-NP, 1.111 µM | 1.01
KHOS-NP, 3.333 µM | 1.05
KHOS-NP, 10 µM | 0.983
MES-SA, 0.00017 µM | 0.942
MES-SA, 0.00051 µM | 0.971
MES-SA, 0.00152 µM | 0.9306
MES-SA, 0.00457 µM | 0.952
MES-SA, 0.01372 µM | 0.934
MES-SA, 0.04115 µM | 0.881
MES-SA, 0.1235 µM | 0.84
MES-SA, 0.3704 µM | 0.786
MES-SA, 1.111 µM | 0.685
MES-SA, 3.333 µM | 0.616
MES-SA, 10 µM | 0.378
RD, 0.00017 µM | 0.971
RD, 0.00051 µM | 0.998
RD, 0.00152 µM | 0.987
RD, 0.00457 µM | 1.03
RD, 0.01372 µM | 0.995
RD, 0.04115 µM | 1.02
RD, 0.1235 µM | 1.041
RD, 0.3704 µM | 1.04
RD, 1.111 µM | 1.02
RD, 3.333 µM | 0.994
RD, 10 µM | 0.905
SK-ES-1, 0.00017 µM | 1.06
SK-ES-1, 0.00051 µM | 1.05
SK-ES-1, 0.00152 µM | 1.01
SK-ES-1, 0.00457 µM | 1.01
SK-ES-1, 0.01372 µM | 0.978
SK-ES-1, 0.04115 µM | 0.953
SK-ES-1, 0.1235 µM | 0.914
SK-ES-1, 0.3704 µM | 0.781
SK-ES-1, 1.111 µM | 0.575
SK-ES-1, 3.333 µM | 0.516
SK-ES-1, 10 µM | 0.332
SK-LMS-1, 0.00017 µM | 1.13
SK-LMS-1, 0.00051 µM | 1.13
SK-LMS-1, 0.00152 µM | 1.11
SK-LMS-1, 0.00457 µM | 1.1
SK-LMS-1, 0.01372 µM | 1.13
SK-LMS-1, 0.04115 µM | 1.06
SK-LMS-1, 0.1235 µM | 1.08
SK-LMS-1, 0.3704 µM | 1.05
SK-LMS-1, 1.111 µM | 0.946
SK-LMS-1, 3.333 µM | 0.924
SK-LMS-1, 10 µM | 0.886
SW684, 0.00017 µM | 1.12
SW684, 0.00051 µM | 1.15
SW684, 0.00152 µM | 1.09
SW684, 0.00457 µM | 1.13
SW684, 0.01372 µM | 1.12
SW684, 0.04115 µM | 1.13
SW684, 0.1235 µM | 1.1
SW684, 0.3704 µM | 1.02
SW684, 1.111 µM | 0.795
SW684, 3.333 µM | 0.82
SW684, 10 µM | 0.646
SW872, 0.00017 µM | 1.07
SW872, 0.00051 µM | 1.06
SW872, 0.00152 µM | 1.07
SW872, 0.00457 µM | 1.025
SW872, 0.01372 µM | 1.03
SW872, 0.04115 µM | 1.06
SW872, 0.1235 µM | 0.973
SW872, 0.3704 µM | 0.972
SW872, 1.111 µM | 0.765
SW872, 3.333 µM | 0.733
SW872, 10 µM | 0.654
SYO-1, 0.00017 µM | 1.02
SYO-1, 0.00051 µM | 1.02
SYO-1, 0.00152 µM | 1.01
SYO-1, 0.00457 µM | 1.02
SYO-1, 0.01372 µM | 0.985
SYO-1, 0.04115 µM | 1.01
SYO-1, 0.1235 µM | 0.933
SYO-1, 0.3704 µM | 0.809
SYO-1, 1.111 µM | 0.643
SYO-1, 3.333 µM | 0.503
SYO-1, 10 µM | 0.289
VA-ES-BJ, 0.00017 µM | 1.07
VA-ES-BJ, 0.00051 µM | 1.07
VA-ES-BJ, 0.00152 µM | 1.08
VA-ES-BJ, 0.00457 µM | 1.066
VA-ES-BJ, 0.01372 µM | 1.09
VA-ES-BJ, 0.04115 µM | 1.07
VA-ES-BJ, 0.1235 µM | 1.04
VA-ES-BJ, 0.3704 µM | 1.03
VA-ES-BJ, 1.111 µM | 0.97
VA-ES-BJ, 3.333 µM | 0.987
VA-ES-BJ, 10 µM | 0.891
